Assay results taken from paper PMC7762503, “Pathomechanism characterization and potential therapeutics identification for SCA3 targeting neuroinflammation” (Aging (Albany NY), 2020).
Each block holds one molecule with its values, some of them ahead of it.

Experiments:
[1] = MTT cytotoxicity assay, HMC3 cells; type: cell-based; conditions: human, 0.1−100 μM, 28 h treatment, read-out: IC50 (cytotoxicity, MTT viability)
Protocol: (§1) To evaluate compound cytotoxicity, 2 × 10^4 (HMC3) or 1 × 10^4 (SH-SY5Y) cells were plated on 48-well dishes, grown for 20 h, and treated with the tested compounds (0.1−100 μM). After 28 h (HMC3) or 6 days (SH-SY5Y), 20 μl of 3-(4,5-dimethylthiazol-2-yl)-2,5-diphenyltetrazolium bromide (MTT) (5 mg/ml) was added to the cells at 37°C for 3 h. 200 μl of lysis buffer (10% Triton X-100, 0.1 N HCl, 18% isopropanol) was then added to dishes and the absorbance of the insoluble purple formazan product at OD 570 nm was read by a FLx800 fluorescence microplate spectrophotometer (Bio-Tek, Winooski, VT, USA). The IC50 of the tested compounds were calculated using the interpolation method.

[2] = MTT cytotoxicity assay, SH-SY5Y cells; type: cell-based; conditions: human, 0.1−100 μM, 6 days treatment, read-out: IC50 (cytotoxicity, MTT viability)
Protocol: as §1

[3] = DPPH radical-scavenging assay; conditions: 200 μM DPPH, compounds 10–160 μM, 30 min, room temperature
Protocol: The DPPH radical-scavenging activity was measured in an ethanol mixture containing 200 μM DPPH (Sigma-Aldrich) radical solution and the tested compounds (10–160 μM). The solution was vortexed and incubated for 30 min at room temperature. The scavenging capacity was measured by monitoring the decrease in absorbance at 517 nm with a microplate spectrophotometer (Multiskan GO, Thermo Fisher Scientific). The half maximal effective concentrations (EC50) for inhibition of the formation of DPPH radicals were calculated using the interpolation method.

ATXN3/Q75-GFP [4] = assay: High content polyQ aggregation analysis, ATXN3/Q75-GFP SH-SY5Y cells; type: cell-based, human; conditions: 10 μM compound, ATXN3/Q75-GFP-expressing cells; for reduction of aggregation: vs untreated 2.8%
Protocol: (§2) ATXN3/Q75-GFP SH-SY5Y cells were plated on 24-well (1 × 10^4/well) dishes, and retinoic acid (10 μM; Sigma-Aldrich) was added to initiate neuronal differentiation. On the second day, cells were treated with the tested compound (10 μM) for 8 h before ATXN3-GFP expression induction by adding doxycycline (5 μg/ml). For comparison, cells without inducing ATXN3/Q75-GFP expression were included. The cells were kept in the medium containing retinoic acid, doxycycline and test compound for 6 days. For the cells with inflammatory stimulation, HMC3 conditioned medium with (CM/+IFN-γ) or without (CM/–IFN-γ) IFN-γ stimulation was added at a 1:1 ratio in the last two days. On the eighth day, cells were stained with Hoechst 33342 (0.1 μg/ml; Sigma-Aldrich) for 30 min, and images of the cells were automatically obtained using an ImageXpressMICRO high content analysis (HCA) system (Molecular Devices, San Jose, CA, USA). Excitation/emission filters were at 482/536 and 377/447 nm for enhanced GFP and Hoechst 33342, respectively. Aggregation was determined by Transfluor technology based on GFP fluorescence intensity. Neurite length, process and branch of ATXN3/Q75-GFP-expressing cells were analyzed by using Metamorph microscopy automation and image analysis software (neurite outgrowth application module, Molecular Devices). In addition, cells were fixed, permeated and stained with neuronal class III β-tubulin (TUBB3) antibody (1:1000; Covance, Princeton, NJ, USA), followed by anti-rabbit Alexa Fluor ®555 antibody (1:1000; Thermo Fisher Scientific) for neurite outgrowth analysis. To quantify neurite outgrowth, microscopic images were segmented with multi-colored mask to assign each outgrowth to a cell body for quantification. In general, 10^4 cells in each biological replicate were analyzed.

[5] = system: ATXN3/Q75-GFP SH-SY5Y cells; assay: Neurite outgrowth analysis, ATXN3/Q75-GFP SH-SY5Y cells; type: cell-based, human; conditions: 10 μM compound, ATXN3/Q75-GFP-expressing cells; for neurite branch: untreated 1.0; for neurite process: untreated 1.8; for neurite length: untreated 23.6 μm
Protocol: as §2

[6] = system: ATXN3/Q75-GFP SH-SY5Y cells; assay: Neurite outgrowth analysis, CM/+IFN-γ-inflamed ATXN3/Q75-GFP SH-SY5Y cells; type: cell-based, human; conditions: 10 μM compound; for neurite process: untreated 1.4; for neurite length: untreated 14.4 μm
Protocol: as §2

ATXN3/Q75-GFP [7] = assay: Western blot of soluble ATXN3/Q75-GFP protein; type: cell-based, human; conditions: 10 μM compound; without compound = 100%
Protocol: Cells were lysed using buffer (50 mM Tris-HCl pH8.0, 0.5% sodium deoxycholate, 0.1% SDS, 150 mM NaCl, 2 mM EDTA, 50 mM NaF and 1% NP40) containing the protease inhibitor cocktail (Sigma-Aldrich). After sonication, the lysates were centrifuged at 12,000 × g for 10 min at 4°C. Protein concentrations were determined using a protein assay kit (Bio-Rad, Hercules, CA, USA), with albumin as standards. Total soluble proteins (20 μg) were electrophoresed on 10% SDS-polyacrylamide gel and transferred onto polyvinylidene difluoride membrane (Sigma-Aldrich) by reverse electrophoresis. After being blocked, the membrane was stained with ATXN3 (1:1000; GeneTex, Irvive, CA, USA), GFP (1:1000; Santa Cruz Biotechnology, Santa Cruz, CA, USA), CD68 (1:1000; Cell Signaling), IκBα (1:1000; Cell Signaling), p-IκBα (S32/36) (1:1000; Cell Signaling), P65 (1:1000; Cell Signaling), p-P65 (S536) (1:1000; Cell Signaling), JNK (1:1000; Cell Signaling), p-JNK (T183/Y185) (1:500; Cell Signaling), JUN, p-JUN (S63) (1:1000; Cell Signaling), P38 (1:1000; Cell Signaling), p-P38 (T180/Y182) (1:1000; Cell Signaling), STAT1 (1:1000; Cell Signaling), p-STAT1 (S727) (1:1000; Cell Signaling), or GAPDH (1:5000; MDBio Inc., Taipei, Taiwan) primary antibody at room temperature 2 h or 4°C overnight. The immune complexes were detected using horseradish peroxidase (HRP)-conjugated goat anti-mouse or goat anti-rabbit IgG antibody (1:5000; GeneTex) and chemiluminescent HRP substrate (Millipore, Billerica, MA, USA).

Compound: CCCCC/C=C\C/C=C\C/C=C\C/C=C\CCCC(=O)Nc1ccc(O)cc1 [AM404, reference compound]
IC50 at 28 h [1]: 84 µM | IC50 at 6 days [2]: 49 µM | EC50 [3]: 141 µM | polyQ aggregation (cells with aggregates) (ATXN3/Q75-GFP [4]; untreated 2.8%): not reducing ATXN3/Q75 aggregation | neurite branch [5]: 1.4 | neurite process [5]: 2.2 | neurite length [5]: 30.8 μm | neurite process [6]: 1.6 | neurite length [6]: 17.3–18.0 μm

Compound: O=c1c(O)c(-c2ccc(O)cc2)oc2cc(O)cc(O)c12 [Kaempferol, kaempferol, reference compound]
EC50 [3]: 27 µM

Compound: O=[N+]([O-])c1cccc2nc(/C=C/c3cc4ccccc4nc3N3CCOCC3)ccc12 [VB-037]
IC50 at 28 h [1]: > 100 µM | IC50 at 6 days [2]: 78 µM | DPPH scavenging activity EC50 [3]: no detectable DPPH-scavenging activity | reduction of aggregation (ATXN3/Q75-GFP [4]): 12–25% | soluble ATXN3/Q75-GFP protein (Western blot, GFP antibody) (ATXN3/Q75-GFP [7]): 144−173% | neurite branch [5]: 1.2 | neurite process [5]: 2.0–2.1 | neurite length [5]: 26.9–27.2 μm

The next lines start with results.

EC50 [3]: 100 µM
Compound: O=C(c1ccccc1)c1cc2c(O)cccc2oc1=O [LM-031, 3-benzoyl-5-hydroxychromen-2-one]
IC50 at 28 h [1]: > 100 µM | IC50 at 6 days [2]: > 100 µM | reduction of aggregation (ATXN3/Q75-GFP [4]): 12–25% | soluble ATXN3/Q75-GFP protein (Western blot, GFP antibody) (ATXN3/Q75-GFP [7]): 144−173% | neurite branch [5]: 1.2 | neurite process [5]: 2.0–2.1 | neurite length [5]: 26.9–27.2 μm | neurite branch ([6]; untreated 0.6): 0.8 | neurite process [6]: 1.6 | neurite length [6]: 17.3–18.0 μm

DPPH scavenging activity EC50 [3]: no detectable DPPH-scavenging activity
Compound: CC(=O)/C(=C/c1ccccc1[N+](=O)[O-])Cc1c[nH]c2ccccc12 [NC009-1]
IC50 at 28 h [1]: > 100 µM | IC50 at 6 days [2]: 52 µM | reduction of aggregation (ATXN3/Q75-GFP [4]): 12–25% | soluble ATXN3/Q75-GFP protein (Western blot, GFP antibody) (ATXN3/Q75-GFP [7]): 144−173% | neurite branch [5]: 1.2 | neurite process [5]: 2.0–2.1 | neurite length [5]: 26.9–27.2 μm | neurite process [6]: 1.6 | neurite length [6]: 17.3–18.0 μm
